Results published in ChEMBL document CHEMBL5257095, “Synthesis and biological evaluation of novel pteridin-7(8H)-one derivatives as potent CDK2 inhibitors” (Bioorg Med Chem Lett, 2023).
pIC50: −log10 of the molar value.

How the values were obtained:
[1] = target: Cyclin-dependent kinase 2/cyclin E (Homo sapiens) (UniProt P24864+P24941+O96020); test: Inhibition of CDK2/Cyclin E (unknown origin) at 500 nM; assay type: protein-complex assay
[2] = target: Cyclin-dependent kinase 2/cyclin E (Homo sapiens, UniProt P24941); test: Inhibition of CDK2/Cyclin E (unknown origin); assay type: protein-complex assay
[3] = tested on: HCT-116; test: Antiproliferative activity against human HCT-116 cells assessed as inhibition of cell proliferation; assay type: functional, cell-based
[4] = tested on: MV4-11; test: Antiproliferative activity against human MV4-11 cells assessed as inhibition of cell proliferation; assay type: functional, cell-based
[5] = target: Cyclin-dependent kinase 4/cyclin D1 (Homo sapiens, UniProt P11802); test: Inhibition of CDK4/Cyclin D1 (unknown origin); assay type: protein-complex assay
[6] = target: CDK6/cyclin D3 (Homo sapiens, UniProt Q00534); test: Inhibition of CDK6/Cyclin D3 (unknown origin); assay type: protein-complex assay
[7] = species on record: Homo sapiens; test: Selectivity ratio of IC50 for inhibition of CDK4/Cyclin D1 (unknown origin) to IC50 for inhibition of CDK2/Cyclin E (unknown origin)
[8] = species on record: Homo sapiens; test: Selectivity ratio of IC50 for inhibition of CDK6/Cyclin D3 (unknown origin) to IC50 for inhibition of CDK2/Cyclin E (unknown origin)

Chain of CDK6/cyclin D3 (P30281 whole entry): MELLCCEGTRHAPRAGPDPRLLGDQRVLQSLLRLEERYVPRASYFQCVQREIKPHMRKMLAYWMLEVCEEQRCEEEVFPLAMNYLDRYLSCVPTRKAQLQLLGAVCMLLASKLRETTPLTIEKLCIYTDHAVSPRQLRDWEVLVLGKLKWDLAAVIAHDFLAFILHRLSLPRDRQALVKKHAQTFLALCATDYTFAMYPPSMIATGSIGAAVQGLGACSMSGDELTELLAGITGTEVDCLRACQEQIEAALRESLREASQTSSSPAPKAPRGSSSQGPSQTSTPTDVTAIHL
Chain of CDK6/cyclin D3 (Q00534 whole entry): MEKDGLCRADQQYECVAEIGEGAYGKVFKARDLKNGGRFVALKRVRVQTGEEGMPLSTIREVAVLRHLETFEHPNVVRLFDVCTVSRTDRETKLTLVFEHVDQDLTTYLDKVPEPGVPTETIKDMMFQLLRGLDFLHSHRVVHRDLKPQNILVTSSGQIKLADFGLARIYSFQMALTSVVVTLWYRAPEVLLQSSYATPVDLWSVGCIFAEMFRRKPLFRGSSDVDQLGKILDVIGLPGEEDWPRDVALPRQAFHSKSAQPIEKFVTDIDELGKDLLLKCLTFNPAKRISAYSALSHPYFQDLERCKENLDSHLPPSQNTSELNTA
Chain of Cyclin-dependent kinase 4/cyclin D1 (P11802 whole entry): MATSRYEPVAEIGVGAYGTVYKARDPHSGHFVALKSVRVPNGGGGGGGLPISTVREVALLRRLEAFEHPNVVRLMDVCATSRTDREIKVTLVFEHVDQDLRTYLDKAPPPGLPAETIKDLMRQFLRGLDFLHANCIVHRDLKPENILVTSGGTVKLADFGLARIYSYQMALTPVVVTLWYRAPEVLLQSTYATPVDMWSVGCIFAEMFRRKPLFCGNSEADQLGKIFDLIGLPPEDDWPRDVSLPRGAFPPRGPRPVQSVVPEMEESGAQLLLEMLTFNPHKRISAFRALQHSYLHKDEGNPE
Chain of Cyclin-dependent kinase 4/cyclin D1 (P24385 whole entry, further chain): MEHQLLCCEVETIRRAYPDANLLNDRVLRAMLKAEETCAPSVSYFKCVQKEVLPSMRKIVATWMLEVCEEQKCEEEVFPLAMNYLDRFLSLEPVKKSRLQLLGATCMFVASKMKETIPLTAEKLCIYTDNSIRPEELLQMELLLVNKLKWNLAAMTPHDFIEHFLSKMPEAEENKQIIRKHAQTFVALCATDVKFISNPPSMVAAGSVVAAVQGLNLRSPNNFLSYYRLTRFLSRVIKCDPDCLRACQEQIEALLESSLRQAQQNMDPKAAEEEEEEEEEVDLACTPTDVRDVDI

Row | inhibition [1] | pIC50 [3] | pIC50 [4] | SMILES | other results
1 | 1.7% | – | – | CS(=O)(=O)c1ccc(Nc2ncc3c(n2)n(C2CCCC2)c(=O)c2nncn23)cc1 | –
2 | 14.2% | – | – | CS(=O)(=O)N1CCC(Nc2ncc3c(n2)n(C2CCCC2)c(=O)c2nncn23)CC1 | –
3 | 34.4% | – | – | CCNc1ncc2nc(NC3CCN(S(C)(=O)=O)CC3)c(=O)n(C3CCCC3)c2n1 | –
4 | 46.2% | – | – | CNc1nc2cnc(NC3CCN(S(C)(=O)=O)CC3)nc2n(C2CCCC2)c1=O | –
5 | 79.6% | 5.26 | 5.31 | CCC(CC)n1c(=O)c(OC)nc2cnc(NC3CCN(S(C)(=O)=O)CC3)nc21 | pIC50 [2]: 6.46
6 | 48.3% | 5.21 | 5.31 | CN1CCN(c2ccc(Nc3ncc4nc(O)c(=O)n(C5CCCC5)c4n3)cc2)CC1 | pIC50 [2]: 5.80
7 | 67.3% | 5.46 | 5.93 | CS(=O)(=O)c1ccc(Nc2ncc3nc(NN)c(=O)n(C4CCCC4)c3n2)cc1 | pIC50 [2]: 6.04
8 | 45.8% | 5.30 | 5.37 | COc1nc2cnc(NC3CCN(S(C)(=O)=O)CC3)nc2n(C2CCOCC2)c1=O | pIC50 [2]: 5.77
9 | 45.4% | – | – | CCS(=O)(=O)N1CCC(Nc2ncc3nc(NC)c(=O)n(C4CCCC4)c3n2)CC1 | –
10 | 9.3% | – | – | CS(=O)(=O)N1CCC(Nc2ncc3nc(O)c(=O)n(C4CCOCC4)c3n2)CC1 | –
11 | 65.4% | 5.03 | 5.04 | CCS(=O)(=O)N1CCC(Nc2ncc3nc(O)c(=O)n(C4CCCC4)c3n2)CC1 | pIC50 [2]: 5.98
12 | 20.3% | – | – | CCNc1nc2cnc(NC3CCN(S(C)(=O)=O)CC3)nc2n(C2CCCC2)c1=O | –
13 | 51.2% | – | – | CS(=O)(=O)N1CCC(Nc2ncc3nc(NCC(F)F)c(=O)n(C4CCCC4)c3n2)CC1 | –
14 | 20.1% | – | – | O=c1c(O)nc2cnc(NC3CCN(S(=O)(=O)C4CC4)CC3)nc2n1C1CCCC1 | –
15 | 35.1% | – | – | CS(=O)(=O)N1CCC(Nc2nc3cnc(NCC(F)F)nc3n(C3CCCC3)c2=O)CC1 | –
16 | 43.2% | – | – | CCNc1ncc2nc(NC3CCN(S(=O)(=O)N(C)C)CC3)c(=O)n(C3CCCC3)c2n1 | –
17 | 26.8% | – | – | CS(=O)(=O)N1CCC(Nc2nc3cnc(NN)nc3n(C3CCCC3)c2=O)CC1 | –

The next lines start with the molecule.

Row | SMILES | inhibition [1] | pIC50 [3] | pIC50 [4] | other results
18 | CCC(C)n1c(=O)c(OC)nc2cnc(NC3CCN(S(C)(=O)=O)CC3)nc21 (stereo not given) | 70.2% | 5.20 | 5.11 | pIC50 [2]: 6.30
19 | CS(=O)(=O)N1CCC(Nc2ncc3nc(O)c(=O)n(C4CCNC4)c3n2)CC1 (stereo not given) | 4.1% | – | – | –
20 | CN(C)S(=O)(=O)N1CCC(Nc2nc3cnc(NN)nc3n(C3CCCC3)c2=O)CC1 | 27.1% | – | – | –
21 | COc1nc2cnc(NC3CCN(S(C)(=O)=O)CC3)nc2n(C2CCCC2)c1=O | 82.4% | 5.71 | 5.59 | pIC50 [2]: 6.80
22 | CCC(C)n1c(=O)c(O)nc2cnc(NC3CCN(S(C)(=O)=O)CC3)nc21 (stereo not given) | 23.4% | – | – | –
23 | C[C@@]1(O)CCC[C@H]1n1c(=O)c(C(F)F)cc2cnc(NC3CCN(S(C)(=O)=O)CC3)nc21 [EBVACICLIB] | 98.8% | 6.66 | 6.24 | –
24 | CN(C)S(=O)(=O)N1CCC(Nc2nc3cnc(NCC(F)F)nc3n(C3CCCC3)c2=O)CC1 | 38.2% | – | – | –
25 | CS(=O)(=O)N1CCC(Nc2ncc3nc(O)c(=O)n([C@@H]4CCC[C@H]4O)c3n2)CC1 | 43% | – | – | –
26 | CS(=O)(=O)N1CCC(Nc2ncc3nc(NN)c(=O)n(C4CCCC4)c3n2)CC1 | 85.6% | 5.79 | 5.71 | pIC50 [5]: 6.47; pIC50 [2]: 6.89; pIC50 [6]: 6.34; Ratio IC50 [7]: 3; Ratio IC50 [8]: 4
27 | CS(=O)(=O)N1CCC(Nc2ncc3nc(O)c(=O)n(C4CCCC4)c3n2)CC1 | 62.2% | 4.98 | 4.86 | pIC50 [2]: 5.91
28 | CCC(CC)n1c(=O)c(O)nc2cnc(NC3CCN(S(C)(=O)=O)CC3)nc21 | 39.2% | – | – | –
29 | CN(C)S(=O)(=O)N1CCC(Nc2ncc3nc(O)c(=O)n(C4CCCC4)c3n2)CC1 | 15.8% | – | – | –
30 | CS(=O)(=O)c1ccc(Nc2ncc3nc(O)c(=O)n(C4CCCC4)c3n2)cc1 | 30% | – | – | –
31 | COc1nc2cnc(NC3CCN(S(=O)(=O)N(C)C)CC3)nc2n(C2CCCC2)c1=O | 36.1% | – | – | –
32 | CNc1nc2cnc(NC3CCN(S(=O)(=O)C4CC4)CC3)nc2n(C2CCCC2)c1=O | 9.2% | – | – | –
